# Reference: patent publication US20150105252A1, “SUBSTITUTED PYRAZOLES AS HERBICIDES” (E I DU PONT DE NEMOURS AND COMPANY, priority 2013, published 2015)
# How the values were obtained:
# wheat [1] = assay: Test A preemergence; type: in vivo, Triticum aestivum
# Method in brief: (§1)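 Pre- and postemergence greenhouse test; loam+sand; cpd in non-phytotox. solvent/surfactant; post at 1–2 leaf, 2–10 cm; visual score ~10 d, 0 = none, 100 = complete control.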
# sedge, umbrella [2] = assay: Test C flooded paddy test; type: in vivo, Cyperus difformis; conditions: Flood
# Excerpt: (§2) At time of treatment, test pots were flooded to 3 cm above the soil surface, treated by application of test compounds directly to the paddy water, and then maintained at that water depth for the duration of the test. Treated plants and controls were maintained in a greenhouse for 13 to 15 days, after which time all species were compared to controls and visually evaluated. […] A dash (-) response means no test result.
# barnyardgrass [3] = assay: Test A postemergence; type: in vivo, Echinochloa crus-galli; conditions: Postemergence
# Method in brief: as §1
# morningglory [4] = assay: Test A postemergence; type: in vivo, Ipomoea spp.; conditions: Postemergence
# Method in brief: as §1
# foxtail, giant [5] = assay: Test A preemergence; type: in vivo, Setaria faberii
# Method in brief: as §1
# barnyardgrass [6] = assay: Test C flooded paddy test; type: in vivo, Echinochloa crus-galli; conditions: Flood
# Excerpt: as §2
# crabgrass, large [7] = assay: Test A preemergence; type: in vivo, Digitaria sanguinalis
# Method in brief: as §1
# foxtail, giant [8] = assay: Test A postemergence; type: in vivo, Setaria faberii; conditions: Postemergence
# Method in brief: as §1
# corn [9] = assay: Test A postemergence; type: in vivo, Zea mays; conditions: Postemergence
# Method in brief: as §1
# rice [10] = assay: Test C flooded paddy test; type: in vivo, Oryza sativa; conditions: Flood
# Excerpt: as §2
# pigweed [11] = assay: Test A postemergence; type: in vivo, Amaranthus retroflexus; conditions: Postemergence
# Method in brief: as §1
# corn [12] = assay: Test A preemergence; type: in vivo, Zea mays
# Method in brief: as §1
# crabgrass, large [13] = assay: Test A postemergence; type: in vivo, Digitaria sanguinalis; conditions: Postemergence
# Method in brief: as §1
# barnyardgrass [14] = assay: Test A preemergence; type: in vivo, Echinochloa crus-galli
# Method in brief: as §1
# wheat [15] = assay: Test A postemergence; type: in vivo, Triticum aestivum; conditions: Postemergence
# Method in brief: as §1
# morningglory [16] = assay: Test A preemergence; type: in vivo, Ipomoea spp.
# Method in brief: as §1
# pigweed [17] = assay: Test A preemergence; type: in vivo, Amaranthus retroflexus
# Method in brief: as §1
# velvetleaf [18] = assay: Test A postemergence; type: in vivo, Abutilon theophrasti; conditions: Postemergence
# Method in brief: as §1
# velvetleaf [19] = assay: Test A preemergence; type: in vivo, Abutilon theophrasti
# Method in brief: as §1
# sedge, umbrella [20] = assay: Test B flood; type: in vivo, Cyperus difformis; conditions: 250 g ai/ha, visual rating on 0 to 100 scale (0 no effect, 100 complete control), 13 to 15 days
# Method in brief: (§3)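 Each compound is applied to the floodwater of pots holding 2-leaf seedlings, water standing 3 cm over the soil throughout. Plants stay in a greenhouse 13 to 15 days before visual scoring against controls from 0 (no effect) to 100 (complete control).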
# rice [21] = assay: Test B flood; type: in vivo, Oryza sativa; conditions: 250 g ai/ha, visual rating on 0 to 100 scale (0 no effect, 100 complete control), 13 to 15 days
# Method in brief: as §3
# barnyardgrass [22] = assay: Test B flood; type: in vivo, Echinochloa crus-galli; conditions: 250 g ai/ha, visual rating on 0 to 100 scale (0 no effect, 100 complete control), 13 to 15 days
# Method in brief: as §3
# ducksalad = assay: Test B flood; type: in vivo, Heteranthera limosa; conditions: 250 g ai/ha, visual rating on 0 to 100 scale (0 no effect, 100 complete control), 13 to 15 days
# Method in brief: as §3
# [23] = Preemergence, 1000 g ai/ha, 0 to 100 scale, 0 no effect, 100 complete control
# [24] = 31 g ai/ha, scale 0 to 100 (0 no effect, 100 complete control)
# [25] = 62 g ai/ha, scale 0 to 100 (0 no effect, 100 complete control)
# [26] = 1000 g ai/ha, visual rating after approx. 10 days, 0 to 100 scale (0 no effect, 100 complete control)
# [27] = preemergence, 125 g ai/ha, visual injury approx. 10 days after treatment
# [28] = 125 g ai/ha, 0 to 100 scale, 0 no effect, 100 complete control
# [29] = 500 g ai/ha, 0 to 100 scale (0 no effect, 100 complete control)
# [30] = preemergence, 500 g ai/ha, visual injury after approx. 10 days, 0 to 100 scale (0 no effect, 100 complete control)
smiles,measurement,setting,value
CCCc1cc(C(=O)NCC(F)(F)F)nn1Cc1cccc(C(F)(F)F)c1 [Compound 31],Wheat plant response rating,wheat [1]; [23],10
same,"Plant response rating, Sedge, Umbrella","sedge, umbrella [2]; [24]",30
same,"Plant response rating, Sedge, Umbrella","sedge, umbrella [2]; [25]",70
same,"Plant response rating, Sedge, Umbrella","sedge, umbrella [2]; 125 g ai/ha, scale 0 to 100",85
same,"Plant response rating, Sedge, Umbrella","sedge, umbrella [2]; 250 g ai/ha, scale 0 to 100",85
same,Barnyardgrass plant response rating,barnyardgrass [3]; [26],60
same,Morningglory plant response rating,morningglory [4]; [26],100
same,"Foxtail, Giant plant response rating","foxtail, giant [5]; [23]",100
same,"Plant response rating, Barnyardgrass",barnyardgrass [6]; [24],0
same,"Plant response rating, Barnyardgrass",barnyardgrass [6]; [25],0
same,"Plant response rating, Barnyardgrass","barnyardgrass [6]; 125 g ai/ha, scale 0 to 100",0
same,"Plant response rating, Barnyardgrass","barnyardgrass [6]; 250 g ai/ha, scale 0 to 100",20
same,"Crabgrass, Large plant response rating","crabgrass, large [7]; [23]",100
same,"Foxtail, Giant plant response rating","foxtail, giant [8]; [26]",70
same,Corn plant response rating,corn [9]; [26],20
same,"Plant response rating, Rice",rice [10]; [24],0
same,"Plant response rating, Rice",rice [10]; [25],0
same,"Plant response rating, Rice","rice [10]; 125 g ai/ha, scale 0 to 100",0
same,"Plant response rating, Rice","rice [10]; 250 g ai/ha, scale 0 to 100",15
same,Pigweed plant response rating,pigweed [11]; [26],100
same,Corn plant response rating,corn [12]; [23],10
same,"Crabgrass, Large plant response rating","crabgrass, large [13]; [26]",60
same,Barnyardgrass plant response rating,barnyardgrass [14]; [23],50
same,Wheat plant response rating,wheat [15]; [26],30
same,Morningglory plant response rating,morningglory [16]; [23],40
same,Pigweed plant response rating,pigweed [17]; [23],90
same,Velvetleaf plant response rating,velvetleaf [18]; [26],100
same,Velvetleaf plant response rating,velvetleaf [19]; [23],50
CCc1cc(C(=O)NCC(F)(F)F)nn1Oc1cccc(OC(F)(F)F)c1 [Compound 221],Wheat plant response rating (0 to 100 scale),wheat [1]; [27],0
same,"Plant response rating, Sedge, Umbrella","sedge, umbrella [20]",0
same,"Plant response rating, Rice",rice [21],0
same,Barnyardgrass plant response rating,barnyardgrass [3]; [28],10
same,Barnyardgrass plant response rating,barnyardgrass [3]; [29],10
same,Morningglory plant response rating,morningglory [4]; [28],30
same,Morningglory plant response rating,morningglory [4]; [29],80
same,"Plant response rating, Barnyardgrass",barnyardgrass [22],0
same,"Foxtail, Giant plant response rating (0 to 100 scale)","foxtail, giant [5]; [27]",0
same,"Foxtail, Giant plant response rating","foxtail, giant [5]; [30]",40
same,"Crabgrass, Large plant response rating (0 to 100 scale)","crabgrass, large [7]; [27]",10
same,"Crabgrass, Large plant response rating","crabgrass, large [7]; [30]",90
same,"Foxtail, Giant plant response rating","foxtail, giant [8]; [28]",10
same,"Foxtail, Giant plant response rating","foxtail, giant [8]; [29]",30
same,Corn plant response rating,corn [9]; [28],10
same,Corn plant response rating,corn [9]; [29],20
same,Pigweed plant response rating,pigweed [11]; [28],20
same,Pigweed plant response rating,pigweed [11]; [29],60
same,Corn plant response rating (0 to 100 scale),corn [12]; [27],0
same,Corn plant response rating,corn [12]; [30],0
same,"Crabgrass, Large plant response rating","crabgrass, large [13]; [28]",10
same,"Crabgrass, Large plant response rating","crabgrass, large [13]; [29]",30
same,"Barnyardgrass plant response rating (0 to 100 scale, 0 is no effect, 100 is complete control)",barnyardgrass [14]; [27],0
same,Barnyardgrass plant response rating,barnyardgrass [14]; [30],10
same,Wheat plant response rating,wheat [15]; [28],0
same,Wheat plant response rating,wheat [15]; [29],10
same,Morningglory plant response rating (0 to 100 scale),morningglory [16]; [27],0
same,Pigweed plant response rating (0 to 100 scale),pigweed [17]; [27],0
same,Velvetleaf plant response rating,velvetleaf [18]; [28],0
same,Velvetleaf plant response rating,velvetleaf [18]; [29],20
same,Velvetleaf plant response rating (0 to 100 scale),velvetleaf [19]; [27],0
same,"Plant response rating, Ducksalad",ducksalad,0
